SMILES strings stand for the structures.

Assay [1] relates to isolated guinea pig ileum (leukotriene D4). Description: Anti-LTD4 action (in vitro), inhibition of leukotriene D4-induced contraction of isolated ileum. It counts as cell-based. As to conditions: Cavia porcellus; for IC50: isolated guinea pig ileum, leukotriene D4; for inhibition at 10 µM: 0.5 h, 10^-5 M, 30 minutes incubation, 37° C., read-out: Anti-LTD4 action (%), contraction inhibition rate. Here is the method:
(§1) Antihistaminic Action and Anti-LTD4 Action (In vitro Tests)
(§2) An isolated guinea pig ileum was cut into about 2 cm lengths. Each ileum piece was suspended in a 20-ml container filled with the Krebs buffer. An isotonic contractive response by histamine or leukotriene D4 was recorded on a recorder. The Krebs buffer was controlled at 37° C., through which a mixed gas (95%O2 -5%CO2) was bubbled. First, histamine or leukotriene D4 was added to an organ bath to measure its dose-response. After the ileum piece was washed several times with the buffer, a test compound (will be identified by its example number; this will apply likewise hereinafter) of a predetermined specific concentration was added. Subsequent to incubation for 30 minutes, the dose-response of histamine or leukotriene D4 was measured again. Incidentally, in Table 7, the values (%) indicate contraction inhibition rate at 10^-5 M, while the values in parentheses show pD'2 values in the case of antihistaminic action and IC50 values in the case of anti-LTD4 action.

For a further assay, the target named is T1, LTD4 receptor (Cavia porcellus, UniProt Q2NNR5).
T1 construct: guinea pig pulmomembranous protein; from tissue; host or cells: guinea pig lung membranes
T1 sequence (Q2NNR5 1-340): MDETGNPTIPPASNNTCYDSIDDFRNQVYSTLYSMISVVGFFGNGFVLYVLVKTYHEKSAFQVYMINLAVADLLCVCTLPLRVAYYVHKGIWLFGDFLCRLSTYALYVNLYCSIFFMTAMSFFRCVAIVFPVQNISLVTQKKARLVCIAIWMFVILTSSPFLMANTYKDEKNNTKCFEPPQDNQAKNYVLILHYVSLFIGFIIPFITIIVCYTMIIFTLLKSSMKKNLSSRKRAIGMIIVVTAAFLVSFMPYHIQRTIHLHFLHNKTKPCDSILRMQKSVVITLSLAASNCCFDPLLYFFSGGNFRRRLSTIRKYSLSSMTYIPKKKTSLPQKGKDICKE
Description: LTD4 receptor binding inhibition test ([^3 H]leukotriene D4, guinea pig pulmomembranous protein). As to conditions: for Kd: read-out: LTD4 receptor, dissociation constant KD. In short, it runs like this:
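Filtration binding with [3H]LTD4 on guinea pig lung membranes; reaction stopped with ice-cold Tris-HCl/NaCl buffer (10 mM/100 mM, pH 7.5), bound radioactivity by scintillation counting. Nonspecific binding defined with 2 μM leukotriene D4. IC50 from dose-response, converted to dissociation constant by Cheng-Prusoff.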

Assay [2] addresses T2, isolated guinea pig ileum (histamine) (Cavia porcellus, UniProt P31389).
T2 construct: An isolated guinea pig ileum was cut into about 2 cm lengths; from tissue; host or cells: isolated guinea pig ileum
As to the kind of experiment: Antihistaminic action (in vitro), inhibition of histamine-induced contraction of isolated ileum. It counts as cell-based. As to conditions: for inhibition at 10 µM: 10^-5 M, 30 minutes incubation, 37° C., read-out: Antihistaminic (%), contraction inhibition rate; for pD'2 (antihistaminic action): isolated guinea pig ileum, histamine, 30 min. The protocol:
as §1, §2

The target in another assay is T3, H1 receptor (Cavia porcellus, UniProt P31389).
T3 construct: guinea pig cerebromembranous protein; from tissue; host or cells: guinea pig cerebral (brain) membranes
T3 sequence (P31389 whole entry): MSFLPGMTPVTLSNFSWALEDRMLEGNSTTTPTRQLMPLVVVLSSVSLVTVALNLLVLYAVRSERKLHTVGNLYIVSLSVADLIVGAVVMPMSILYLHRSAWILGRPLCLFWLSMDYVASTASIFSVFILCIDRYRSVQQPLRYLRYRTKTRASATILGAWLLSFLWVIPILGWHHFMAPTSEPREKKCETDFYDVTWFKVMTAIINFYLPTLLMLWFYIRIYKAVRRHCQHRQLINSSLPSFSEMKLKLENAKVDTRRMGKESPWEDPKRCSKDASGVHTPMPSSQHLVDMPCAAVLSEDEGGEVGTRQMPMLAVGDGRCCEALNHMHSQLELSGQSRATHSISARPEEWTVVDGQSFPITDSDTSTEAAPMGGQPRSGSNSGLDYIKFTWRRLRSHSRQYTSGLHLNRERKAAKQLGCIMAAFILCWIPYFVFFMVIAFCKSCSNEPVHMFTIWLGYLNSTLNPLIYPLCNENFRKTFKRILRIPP
Description: H1 receptor binding inhibition test ([^3 H]mepyramin, guinea pig cerebromembranous protein). The note with it: for inhibition at 10 µM: b: 10 μM; for inhibition at 10 µM / inhibition at 100 µM: read-out: H1 receptor (%), inhibition rate; for inhibition at 100 µM: a: 100 μM; for Kd: read-out: H1 receptor, dissociation constant KD. In short, it runs like this: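 [³H]Mepyramine binding to guinea pig brain membranes was stopped with ice-cold phosphate buffer and filtered, and bound radioactivity was measured by liquid scintillation. Nonspecific binding was defined with 10^-4 M R(-)dimethindene. IC50 came from concentration-response data and was converted to a dissociation constant by Cheng-Prusoff.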

For another assay, the system named is leukotriene D4. Description: Anti-LTD4 action in vivo, Evans Blue transudation in back skin after intracutaneous leukotriene D4. Also noted: species or system male Hartley guinea pig. The note with it: Cavia porcellus, po, 1 h; orally 10 mg/kg, one hour before; leukotriene D4 0.5 μg/ml, 0.1 ml intracutaneously; read-out: Anti-LTD4 action (%), inhibition rate. The protocol:
(§3) Antihistaminic Action and Anti-LTD4 Action (In vivo Tests)
(§4) After the hair on the back of a male Hartley guinea pig was cut off, a test compound was orally administered at 10 mg/kg. One hour later, 5% Evans Blue solution was intravenously administered at 1 ml/kg and immediately after that, a 0.3 μg/ml solution of histamine and a 0.5 μg/ml solution of leukotriene D4 were intracutaneously administered each in an amount of 0.1 ml to the back. Thirty minutes later, the guinea pig was sacrificed under exsanguination, the skin was cut off, and the transudated color was quantitated by extraction. To a control, 0.5% CMC (carboxylmethylcellulose) was orally administered and the subsequent procedures were repeated likewise. From the difference in the amount of the transudated color between the control and the group administered with the test compound, an inhibition rate was calculated.

A further assay has as its system histamine (H1). Description: Antihistaminic (anti-H1) action in vivo, Evans Blue transudation in back skin after intracutaneous histamine. Also noted: species or system male Hartley guinea pig. As to conditions: orally 10 mg/kg, one hour before; histamine 0.3 μg/ml, 0.1 ml intracutaneously. The protocol:
as §3, §4

The test system of a further assay is cortical edema. As to conditions: intravenous administration after occurrence of ischemia; cited from earlier work.

T2 sequence (P31389 whole entry): as above

In the case of `CN(Cc1cccc(OCc2ccc3ccccc3n2)c1)c1ccc2c(c1)SCC(=O)N2C` [96(b), 4-methyl-7-[N-methyl-N-(3-(2-quinolinylmethoxy)benzyl)amino]-3,4-dihydro-2H-1,4-benzothiazin-3-one], the IC50 (commonly the concentration that inhibits the measured activity by half) in assay [1] came out at 0.12 µM. Besides, the Kd – broadly, the equilibrium constant for the complex coming apart – at LTD4 receptor is 0.315 µM. In assay [2], the inhibition (commonly how much of the control response was suppressed) at 10 µM was 98% and the “pD'2 (antihistaminic action)” value was 6.17. Also, on H1 receptor, the inhibition at 10 µM worked out at 14%.

Regarding `O=C1CCc2cc(OCc3cccc(OCc4ccc5ccccc5n4)c3)ccc2N1` [Example 6], the inhibition at 10 µM in assay [1] worked out at 98%; in assay [2], 37%; at H1 receptor, 18%. The compound further displayed a 50% inhibitory concentration (IC50) in assay [1] of 0.46 µM. Besides, the Kd at LTD4 receptor was determined as 0.0814 µM. Moreover, the inhibition in vivo at 10 mg/kg with leukotriene D4 was determined as 12%.

As to `O=C1CSc2cc(OCc3cccc(OCc4ccc5ccccc5n4)c3)ccc2N1` [Example 10, 7-[3-(2-Quinolinylmethoxy)benzyloxy]-3,4-dihydro-2H-1,4-benzothiazin-3-one], the Kd on LTD4 receptor worked out at 0.0125 µM. Besides, the “Anti-H1 action (%), inhibition rate” value with histamine (H1) came to 36%. Moreover, the inhibition at 100 µM at H1 receptor amounted to 50%. For the same compound, in the assay on leukotriene D4, the inhibition in vivo at 10 mg/kg amounted to 32%.

Consider `CC1(C)C(=O)Nc2cc(OCc3cccc(OCc4ccc5ccccc5n4)c3)ccc21` [Example 15], for which, at LTD4 receptor (b: 10 μM, read-out: LTD4 receptor (%), inhibition rate), the inhibition at 10 µM worked out at 37%. The “Anti-H1 action (%), inhibition rate” value in the assay on histamine (H1) stood at 17%. For the same compound, the inhibition at 100 µM on H1 receptor is 36%. The inhibition in vivo at 10 mg/kg in the assay with leukotriene D4 was 37%.

Turning to `CC1(C)C(=O)Nc2c(OCc3cccc(OCc4ccc5ccccc5n4)c3)cccc21` [Example 17, 3,3-Dimethyl-7-[3-(2-quinolinylmethoxy)benzyloxy]-2,3-dihydro-1H-indol-2-one], in assay [1], the inhibition at 10 µM turned out to be 96% and the IC50 amounted to 1.5 µM. In addition, the Kd on LTD4 receptor came out at 0.202 µM. For the same compound, the “Anti-H1 action (%), inhibition rate” value in the assay on histamine (H1) worked out at 19%. For the same compound, in assay [2], the inhibition at 10 µM came to 100% and the “pD'2 (antihistaminic action)” value is 5.35. Also, the inhibition at 100 µM on H1 receptor amounted to 40%. Further, the inhibition in vivo at 10 mg/kg in the assay on leukotriene D4 came out at 21%.

For the compound `CC1(C)C(=O)Nc2c(OCc3ccc(OCc4ccc5ccccc5n4)cc3)cccc21` [Example 30, 3,3-Dimethyl-7-[4-(2-quinolinylmethoxy)benzyloxy]-2,3-dihydro-1H-indol-2-one], on LTD4 receptor, the Kd came to 0.2 µM. Further, the “Anti-H1 action (%), inhibition rate” value in the assay on histamine (H1) is 40%. At H1 receptor, the inhibition at 100 µM turned out to be 32%. Further, the inhibition in vivo at 10 mg/kg in the assay on leukotriene D4 was 44%.

Take `O=C1CSc2cc(OCc3cccc(OCc4ncc5ccccc5n4)c3)ccc2N1` [Example 33, 7[3-(2-quinazolinylmethoxyl)benzyloxy]-3,4-dihydro-2H-1,4-benzothiazin-3-one]: in assay [1], the inhibition at 10 µM was 100% and the concentration for half-maximal inhibition (IC50) was 0.13 µM. Also, the Kd on LTD4 receptor came to 0.0097 µM. Also, in assay [2], the inhibition at 10 µM was 65% and the “pD'2 (antihistaminic action)” value is on record as 5.25. For the same compound, the inhibition at 100 µM at H1 receptor was 46%. In addition, the inhibition in vivo at 10 mg/kg with leukotriene D4 stood at 40%.

As for `O=C1CCc2ccc(OCc3ccc(OCc4ncc5ccccc5n4)cc3)cc2N1` [Example 35, 7-[4-(2-quinazolinylmethoxy)benzyloxy]-1,2,3,4-tetrahydroquinolin-2-one], the inhibition at 10 µM in assay [1] stood at 87%; in assay [2], 16%. In addition, inhibition in assay [1] was half-maximal at 1.7 µM (IC50). Moreover, the Kd at LTD4 receptor came out at 0.209 µM; at H1 receptor, 87.9 µM. The inhibition in vivo at 10 mg/kg in the assay on leukotriene D4 stood at 11%.

Regarding `Cc1ccc(OCc2ccc(OCc3nc4ccccc4n3C)cc2)c2c1NC(=O)C2(C)C` [Example 39, 4-[4-(N-methylbenzimidazol-2-yl-methoxy)benzyloxy)-3,3,7-trimethyl-2,3-hydro-1H-indol-2-one], in assay [1], the inhibition at 10 µM was 98% and half-maximal inhibition (IC50) required 0.44 µM. The Ki on LTD4 receptor (read-out: LTD4 receptor, dissociation constant KD (converted)) was 0.408 µM. Also, in assay [2], the inhibition at 10 µM was found to be 100% and the “pD'2 (antihistaminic action)” value was determined as 6.42. Moreover, the Kd on H1 receptor was found to be 37.4 µM.

`O=C1CS(=O)(=O)c2cc(OCc3cccc(OCc4nc5ccccc5s4)c3)ccc2N1` [Example 78, 7-[3-(2-Benzothiazolylmethoxy)benzyloxy]-3,4-dihydro-2H-1,4-benzothiazin-3-one 1,1-dioxide]: the Kd on LTD4 receptor came out at 12.6 µM. In addition, the inhibition at 100 µM at H1 receptor was found to be 29%. The inhibition in vivo at 10 mg/kg with leukotriene D4 is 32%.

For `O=C1CCCc2cc(OCc3cccc(OCc4ccc5ccccc5n4)c3)ccc21` [Example 89, 6-[3-(2-quinolinylmethoxy)benzyloxy]-1-tetralone], half-maximal inhibition in assay [1] (IC50) was put at 0.24 µM. On LTD4 receptor, the Kd was 0.0413 µM. Moreover, the “pD'2 (antihistaminic action)” value in assay [2] came out at 5.09. In addition, the inhibition at 10 µM on H1 receptor was 6%.

Turning to `O=C1CSc2c(NCc3cccc(OCc4ccc5ccccc5n4)c3)cccc2N1` [Example 95, 8-[3-(2-quinolinylmethoxy)benzylamino]-3,4-dihydro-2H-1,4-benzothiazin-3-one], at LTD4 receptor, the Kd turned out to be 0.608 µM. Moreover, the inhibition at 10 µM at H1 receptor was 33%.

Turning to `CN1C(=O)CSc2c(NCc3cccc(OCc4ccc5ccccc5n4)c3)cccc21` [Example 97, 4-methyl-8-[3-(2-quinolinylmethoxy)benzylamino]-3,4-dihydro-2H-1,4-benzothiazin-3-one], the Kd on LTD4 receptor was determined as 0.681 µM. Further, the inhibition at 10 µM on H1 receptor came out at 7%.

With `CCCc1c(OCC(O)COc2ccc3c(=O)cc(C(=O)O)oc3c2CCC)ccc(C(C)=O)c1O` (centres unmarked) [FPL55712], in the assay on cortical edema, the “increase and aggravation of cortical edema” value was “significantly inhibited”.

The record behind these values is patent publication US5885987A, “Phenylene derivatives” (Kowa Co., Ltd., priority 1996, dated 1999).
